“Also recorded” adds a separate entry of the source. Read-outs that look alike come from different tables or passages of the source.
What was measured:
serotonin receptors = assay: Affinity to serotonin receptors (receptor binding panel); parameters: species or system human or rodent
Procedure: (§1) Evaluation of binding affinity of isolated compounds to serotonin receptors. In vitro testing of isolated compounds was completed using a small panel of receptor binding assays and then validated in a comprehensive panel by the NIMH Psychoactive Drug Screening Program. Pharmacological and functional screening of isolated molecules was performed on cloned human or rodent CNS receptors, channels, and transporters. Hu, J-F., et al. New Antiinfective and Human 5-HT2 Receptor Binding Natural and Semisynthetic Compounds from the Jamaican Sponge Smenospongia aurea. 65 Jour. of Nat. Prod. 476-80 (2002).
(§2) Porsolt R D, et al. Behavioral Despair In Mice: A Primary Screening Test for Antidepressants, 229 Arch. Int. Pharmacodyn. 327-36 (1977). […] In order to control for false positives, as has been previously observed with psychostimulants, Cryan, J., et al. Assessing Substrates Underlying The Behavioral Effects Of Antidepressants Using The Modified Rat Forced Swimming Test. 29 Neurosci Biobehav Rev. 547-69 (2005) locomotor activity of the animals was monitored using an automated photobeam activity monitoring system. Lucki. I. The Forced Swimming Test As A Model For Core And Component Behavioral Effects Of Antidepressant Drugs. 8 Behav. Pharmacol. 522-32 (1997).

male Swiss Webster mice [1] = assay: Porsolt forced swim test (FST); assay type: in vivo, mouse; details: for antidepressant-like activity / effect on immobility time in FST: male Swiss Webster mice, IP, immobility during last 4 min of 6 min swim
Procedure: (§3) Locomotor Activity and the FST. To evaluate the isolated compounds for antidepressant-like activity, male Swiss Webster mice (Harlan, Indianapolis, Ind.) (25-30 g weight) were used. Animals were housed in groups of five with a 12 h light/12 h dark cycle. Food and water were provided at libitum. All procedures involving animals were performed as approved by the Institutional Animal Care and Use Committee of the University of Mississippi. Animals were randomly divided into groups (n=6-10/group). Each group was injected IP with either the compound (1-20 mg/kg), desipramine (20 mg/kg), or vehicle (saline, 10% ethanol or 10% ethanol/1% DMSO). Following injection, locomotor activity was monitored using an automated activity monitoring system (San Diego Instruments, San Diego, Calif.). Each mouse was placed in a Plexiglas enclosure and locomotor activity was recorded as the number of photobeam interruptions for 30 min after drug injection. The activity for the last ten min was quantified and analyzed. Immediately at the end of the locomotor session, individual mice were subjected to the FST. The mice were individually placed in a clear plastic cylinder (23 cm high, 10 cm internal diameter) filled with deionized water (8 cm high) at 25° C. The mice were recorded with a video camera (positioned at about 30 cm above the cylinder) for a total of 6 min. The total period of immobility during the last 4 min was timed by three independent observers. The mean immobility time was then calculated. A mouse was judged to be immobile when it remained afloat, making only minimal movements to keep its head above water.
(§4) For the FST, immobility times of the three independent rates were averaged for each mouse and data were analyzed using one way analysis of variance (ANOVA) followed by Bonferroni Multiple comparison posthoc tests to determine statistical differences from the corresponding vehicle control. Chick distress vocalization data were analyzed by two-way repeated measures ANOVA, one-way ANOVA and simple effects analyses with post-hoc comparisons conducted using Fisher's LSD test. p-Values less than 0.05 were considered statistically significant.
as §2

5HT2C receptor = target: T1, 5HT2C receptor (Homo sapiens, UniProt P28335); details: cited from earlier work; for Ki: human serotonin receptor, reported
T1 sequence (P28335 33-458): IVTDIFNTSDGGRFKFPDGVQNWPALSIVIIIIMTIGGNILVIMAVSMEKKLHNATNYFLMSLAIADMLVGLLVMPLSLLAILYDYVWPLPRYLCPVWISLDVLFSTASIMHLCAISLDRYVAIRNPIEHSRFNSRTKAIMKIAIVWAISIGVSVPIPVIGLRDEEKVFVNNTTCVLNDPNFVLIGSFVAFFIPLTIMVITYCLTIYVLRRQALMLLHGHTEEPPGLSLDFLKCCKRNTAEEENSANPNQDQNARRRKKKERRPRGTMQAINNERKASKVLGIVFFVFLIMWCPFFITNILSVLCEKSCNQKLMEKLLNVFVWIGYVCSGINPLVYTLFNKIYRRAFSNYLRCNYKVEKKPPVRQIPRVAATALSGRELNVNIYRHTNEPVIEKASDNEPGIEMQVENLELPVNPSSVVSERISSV

5HT2A receptor [2] = target: T2, 5HT2A receptor (Homo sapiens, UniProt P28223); details: human serotonin receptor, reported; cited from earlier work
T2 sequence (P28223 whole entry): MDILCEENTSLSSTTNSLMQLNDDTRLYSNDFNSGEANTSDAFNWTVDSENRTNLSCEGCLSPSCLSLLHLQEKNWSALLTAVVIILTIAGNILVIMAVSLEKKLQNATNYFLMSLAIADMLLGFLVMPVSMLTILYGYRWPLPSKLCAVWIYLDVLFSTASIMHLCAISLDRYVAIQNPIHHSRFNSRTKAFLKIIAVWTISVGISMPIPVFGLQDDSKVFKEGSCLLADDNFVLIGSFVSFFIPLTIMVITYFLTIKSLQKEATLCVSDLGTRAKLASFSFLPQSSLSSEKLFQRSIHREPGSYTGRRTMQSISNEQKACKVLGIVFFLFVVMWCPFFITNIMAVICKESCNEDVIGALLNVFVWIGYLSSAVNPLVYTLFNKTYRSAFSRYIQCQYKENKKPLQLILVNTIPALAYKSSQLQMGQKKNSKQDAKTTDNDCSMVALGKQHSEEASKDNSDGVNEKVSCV

male Swiss Webster mice [3] = assay: Locomotor activity test, Swiss Webster mice; assay type: in vivo, mouse; details: IP, photobeam interruptions, versus vehicle
Procedure: as §3
(§5) Effect of select compounds on locomotor activity. Since reductions in immobility time is the primary criterion to assess antidepressant like activity in both the FST and TST, it is crucial to confirm that the effects observed in both tests are not attributed to specific stimulant action of the tested compounds, which would be reflected as enhancement of the locomotor activity. Accordingly, the effect of tested compounds on locomotor activity was evaluated using an automated activity monitoring system.

DBA2/J mice = assay: Locomotor activity test, DBA2/J mice; assay type: in vivo, mouse; details: versus vehicle
Procedure: as §5
However, Tukey's post-hoc tests confirmed that there were no statistical differences between the vehicle controls, or compounds from their respective vehicle controls (FIG. 10A). […] In DBA2/J mice, the pattern of responding in the locomotor studies was similar to that observed in the Swiss Webster mice (FIG. 10B). […] It is thus evident that the drug/dose combinations that produced antidepressant-like effects in both the FST and TST were not associated with confounding stimulant effects effect of select compounds in chick anxiety/depression model: […]

Male DBA2/J mice = assay: Mouse tail suspension test (TST); assay type: in vivo; details: i.p., versus vehicle
Source text: Based on the data collected from the FST, the antidepressant action of aaptamine. 5,6-dibromo-N,N-dimethyltryptamine, and 3-bromotyramine was examined in the mouse tail suspension test (TST), another model highly predictive of antidepressant action. Similar to the FST, this test depends on the depressive behavior elicited by the animals when placed in an inescapable situation, in this case suspending the animal by its tail. Male DBA2/J mice were used for this test.
In fact, higher doses seem to increase immobility time (FIG. 9C). […] However, such effect was only evident at the 40 mg/kg dose (compared to 10 and 20 mg/kg dose in the FST) (FIG. 9D).

white-leghorn cockerels = assay: Chick anxiety-depression continuum model (SCADM); assay type: in vivo; details: 30 mg/kg dose
Procedure: 5,6-Dibromo-N,N-dimethyltryptamine (1) was evaluated in the FST and chicken anxiety-depression model. […] In the chick anxiety-depression continuum model, socially raised chicks are separated from conspecifics during a two hour test session. […] Previous studies have shown the first 5 min block to model the anxiety phase whereby a diverse set of anxiolytic compounds reduce distress vocalizations and that the last 90 min of the test session models the depressive phase of the model whereby antidepressants increase distress vocalizations (i.e., block the onset of behavioral despair). Sufka, K. J. et al.; 17 C. M. Behav.
Sulfka Chick Anxiety-Depression Model (SCADM) Test. Group housed white-leghorn cockerels (Cal-Maine W36) were tested at ages 5-6 days post-hatch. […] Vocalizations were recorded in 5-min blocks over a 120 min test period. […]
as §4

5-HT6 = 5-HT6 (UniProt P50406); assay: In vitro receptor binding assay, 5-HT6; parameters: species or system human or rodent; details: read-out: Ki 5-HT6; preliminary data
Procedure: as §1

5-HT2B receptors = 5-HT2B receptors (UniProt P41595); assay: In vitro receptor binding assay, 5-HT2B; parameters: species or system human or rodent; details: read-out: Ki 5-HT2B; preliminary data
Procedure: as §1

5-HT2C = target: T3, 5-HT2C (UniProt P28335); assay: In vitro receptor binding assay, 5-HT2C; parameters: species or system human or rodent; details: read-out: Ki 5-HT2C; preliminary data
T3 sequence (P28335 1-458): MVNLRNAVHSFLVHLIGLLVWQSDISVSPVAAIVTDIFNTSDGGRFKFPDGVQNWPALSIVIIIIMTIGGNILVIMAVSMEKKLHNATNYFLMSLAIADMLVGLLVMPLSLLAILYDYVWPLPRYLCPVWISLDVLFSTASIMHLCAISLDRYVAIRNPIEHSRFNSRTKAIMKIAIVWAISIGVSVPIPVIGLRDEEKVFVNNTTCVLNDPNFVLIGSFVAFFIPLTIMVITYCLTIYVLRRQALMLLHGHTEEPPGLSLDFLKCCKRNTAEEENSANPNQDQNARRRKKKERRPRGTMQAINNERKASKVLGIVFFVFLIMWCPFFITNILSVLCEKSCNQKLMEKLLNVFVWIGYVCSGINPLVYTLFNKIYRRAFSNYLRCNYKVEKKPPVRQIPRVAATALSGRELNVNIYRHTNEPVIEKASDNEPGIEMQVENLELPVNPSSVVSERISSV
Procedure: as §1

5HT2A receptor [4] = target: T2, 5HT2A receptor; assay: In vitro receptor binding assay, 5-HT2A; parameters: species or system human or rodent; details: read-out: Ki 5-HT2A; preliminary data
Procedure: as §1

In the case of `Oc1cc2ccnc3c2c(c1O)NC=C3` [8,9-demethylaaptamine], the “affinities to serotonin receptors” value (serotonin receptors) is reported as “moderate affinities” and the “antidepressant-like activity / effect on immobility time in FST” value (from here on “antidepressant-like activity / effect”) (male Swiss Webster mice [1]; versus vehicle) is reported as “Neither”.

For `CN1C(=N)N(C)/C(=C/c2c[nH]c3cc(Br)ccc23)C1=O` [6-bromoaplysinopsin], the Ki (5HT2C receptor) is given as 330 nM and the Ki (5HT2A receptor [2]) is given as 2000 nM.

For `COc1cc2ccnc3c2c(c1OC)NC=C3` [aaptamine], the “reduction in immobility time in FST” value (male Swiss Webster mice [1]; 20 mg/kg dose, versus vehicle) was 36%.

For `NCCc1ccc(O)c(Br)c1` [216/218, 2-(3′-bromo-4′hydroxyphenol)-ethanamine], the “affinities to serotonin receptors” value (serotonin receptors) was “moderate affinities”, the “effect on locomotor activity” value (male Swiss Webster mice [3]) was “did not alter the locomotor activity” and the “antidepressant-like activity / effect” value (male Swiss Webster mice [1]; versus vehicle) was “dose dependent reduction in immobility”. The “effect on locomotor activity” value (DBA2/J mice) was “did not alter the locomotor activity” and the “antidepressant-like action / immobility in tail suspension test” value (from here on “antidepressant-like action / immobility”) (Male DBA2/J mice) was “significant antidepressant action”.

In the case of N-3′-ethylaplysinopsin, the Ki (5HT2C receptor) is given as 3500 nM and the Ki (5HT2A receptor [2]) is given as 1700 nM.

In the case of `CN1C(=N)N(C)/C(=C/c2c[nH]c3ccccc23)C1=O` [Aplysinopsin, aplysinopsin], the “antidepressant-like activity / effect” value (male Swiss Webster mice [1]; versus vehicle) is reported as “did not show any significant antidepressant-like activity”.

In the case of `CN(C)CCc1c[nH]c2cc(Br)c(Br)cc12` [5,6-dibromo-N,N-dimethyltryptamine], the “separation distress vocalizations, depression phase” value (white-leghorn cockerels; 30-120 min of test session) is reported as “elevating separation distress vocalizations in the final 30 min of the depression phase”, the “separation distress vocalizations, anxiety phase” value (white-leghorn cockerels; first 5 min of test session) is reported as “attenuating separation distress vocalizations in the anxiety phase” and the “affinities to serotonin receptors” value (serotonin receptors) is reported as “moderate affinities”. For the same molecule, the Ki (5-HT6) was 48 nM, the Ki (5-HT2B receptors) was 11 nM and the “effect on locomotor activity” value (male Swiss Webster mice [3]) was “no statistically significant difference; also recorded: nonsignificant trend toward decreasing locomotor activity”. The “antidepressant-like activity / effect” value (male Swiss Webster mice [1]; versus vehicle) was “significant antidepressant-like action at only the 20 mg/kg dose”, the “antidepressant-like activity / effect” value (male Swiss Webster mice [1]; versus vehicle, listed as 5,6-Dibromo-N,N-dimethyltryptamine) was “significant antidepressant-like activity; also recorded: significantly reduced the immobility time only at the 20 mg/kg dose” and the Ki (5-HT2C) was 187 nM. For the same molecule, the Ki (5HT2A receptor [4]) was 243 nM and the “antidepressant-like action / immobility” value (Male DBA2/J mice) was “strong antidepressant-like action at the 5 mg/kg dose only”.

For `CN(C)CCc1c[nH]c2ccc(Br)cc12` [5-bromo-N,N-dimethyltryptamine], the “effect on locomotor activity” value (male Swiss Webster mice [3]) was “significant reduction of locomotor activity”, the “effect on locomotor activity” value (male Swiss Webster mice [3]; listed as 2) was “significant sedative effect” and the “antidepressant-like activity / effect” value (male Swiss Webster mice [1]; versus vehicle) was “did not exhibit antidepressant-like activity”.

In the case of `CN(C)CCCC1(c2ccc(F)cc2)OCc2cc(C#N)ccc21` (stereo not drawn) [citalopram, reference compound], the “reduction in immobility time in FST” value (male Swiss Webster mice [1]; 5 mg/kg dose, versus saline vehicle) is reported as 40%.

In the case of `CN1C(=N)NC(=Cc2c[nH]c3cc(Br)ccc23)C1=O` [6-bromo-2′-de-N-methylaplysinopsin], the “selectivity to 5HT2C receptors” value (5HT2C receptor; 5HT2C over 5HT2A) is given as 40 fold, the Ki (5HT2C receptor) is given as 2300 nM and the Ki (5HT2A receptor [2]) is given as > 100000 nM.

In the case of `COc1cc2ccnc3c2c(c1O)N(C)C=C3` [isoaaptamine], the “affinities to serotonin receptors” value (serotonin receptors) is reported as “moderate affinities” and the “antidepressant-like activity / effect” value (male Swiss Webster mice [1]; versus vehicle) is reported as “significantly increased immobility time in a dose-dependent manner”.

For `CNCCCN1c2ccccc2CCc2ccccc21` [desipramine, reference compound], the “effect on locomotor activity” value (male Swiss Webster mice [3]) was “no significant difference in locomotor activity”, the “reduction in immobility time in FST” value (male Swiss Webster mice [1]; 20 mg/kg dose, versus vehicle) was 27% and the “antidepressant-like action / immobility” value (Male DBA2/J mice) was “significant reduction in immobility”.

— patent US8268856B2, “Method to use compositions having antidepressant anxiolytic and other neurological activity and compositions of matter” (priority 2007, dated 2012)
